# Assay results published in patent US20240382497A1, “PROPHYLACTIC OR THERAPEUTIC AGENT FOR HYPOXIC INJURY, ISCHAEMIA-REPERFUSION INJURY AND INFLAMMATION, CELL PROTECTION AGENT FOR TRANSPLANTATION, AND BIO-PRESERVATION AGENT” (priority 2018, published 2024).
# Assays:
# Interleukin-1β (IL-1β) = assay: Blood IL-1β in LPS sepsis model (ELISA); type: in vivo, mouse; conditions: about 80 mg/kg i.p., 1 hr and 4 hr, versus saline
# Experimental: (§1) Lipopolysaccharide (LPS) (0.6 mg/kg) was intraperitoneally administered to male Balb/c mice (about 2-3 months old) to generate a sepsis model. Immediately after the LPS administration, 200 μl (about 80 mg/kg) of a solution prepared by diluting various heterocyclic compounds and isothiocyanate compounds 100 times with saline was intraperitoneally administered. Blood samples were collected 60 min after LPS and compound administration, EDTA plasma was prepared, and the blood level of inflammatory cytokine TNF-a was measured by the ELISA method.
# (§2) A sepsis model mouse was prepared by the same method as in Example 18. Immediately after the LPS administration, 200 μl (about 80 mg/kg) of a thiazoline-related compound (2MT) solution prepared by diluting 100 times with saline was intraperitoneally administered. Blood samples were collected 1 hr and 4 hr after administration of LPS and thiazoline-related compound (2MT), EDTA plasma was prepared, and the blood levels of inflammatory cytokine Interleukin-1β (IL-1β), and anti-inflammatory cytokine Interleukin-10 (IL-10) were measured by the ELISA method.
# Male C57/BL6N mice [1] = assay: Core body temperature on odor presentation (radio-telemetry); type: in vivo, mouse; conditions: filter paper scented with 271 μmol odor, 20 min, versus no odor
# Experimental: An influence of a thiazoline-related compound and an odor molecule that induces learned fear on the core body temperature was analyzed. A radio-telemetry device for monitoring biological parameters (manufactured by Physiotel) was surgically implanted in the abdomen of male C57/BL6N mice (about 3 months old). The mice were subjected to the following experiment after about 10 days of recovery period. Each mouse was placed in a test cage and, after acclimation for 10 min, a filter paper dropped with water was presented for 10 min, after which a filter paper scented with 271 μmol of a thiazoline-related compound (2-methyl-2-thiazoline; 2MT) or an odor molecule that induces learned fear (anisole) was presented for 20 min. The information of body temperature was recorded every 10 sec using Dataquest A.R.T. software (DataScience international). The value of the core body temperature change was calculated as the difference between the mean core body temperature for 10 min when water was presented and the mean core body temperature for 20 min when each odor molecule was presented, and the change in the core body temperature without odor was set to 0. The mice presented with the odor that induces learned fear were trained to associate the anisole odor with electric shock one day before the measurement, whereby the mice learned to feel learned fear against the smell of anisole.
# C57/BL6N male mice = assay: Respiratory rate on odor presentation (pulse oximeter); type: in vivo, mouse; conditions: filter paper scented with 271 μmol odor, 20 min
# Experimental: An influence of a thiazoline-related compound and an odor molecule that induces learned fear on the respiratory rate was analyzed. The respiratory rate was analyzed using a pulse oximeter (Mouse Oxplus; STARR Life Science). A pulse oximeter was attached to the neck of C57/BL6N male mice (about 3-month-old) from about 1 week before the test and the mice were acclimated by repeating this operation. The mice were anesthetized with pentobarbital (50 mg/kg, i.p.) 2 days before the test, and the neck hair was depilated with depilatory cream. On the day of testing, an oximeter probe was attached to the shaven neck. After confirming that the signal became stable, the no odor baseline was measured for 10 min, changes in the respiratory rate when the thiazoline-related compound (2MT) or neutral odor (Eugenol; Eug) was presented was measured for 20 min (each n=6). The odors were presented by placing filter papers scented with 271 μmol of odor in the test cage. The oximeter signal was obtained at 1 Hz.
# mice = assay: Oxygen consumption after intraperitoneal injection; type: in vivo, mouse; conditions: versus saline
# Experimental: An influence of a thiazoline-related compound on the oxygen consumption was analyzed. The oxygen consumption was analyzed using an energy metabolism measurement device for small animals (ARCO-2000; ARCO SYSTEM). About 3-month-old C57/BL6N male mice were each placed in a measuring chamber and, after acclimation for about 2 hr, a thiazoline-related compound (2MT) was presented. The odors were presented by placing filter papers scented with 100 μl (104 mmol) of odor molecules in the measuring chamber. As a control, an experiment in which a filter paper dropped with saline was presented to the mice was also performed. The oxygen consumption was measured every one min. Mean oxygen consumption was calculated as the mean of 10 min before presenting odor and 20 min after presenting odor.
# Changes in the oxygen consumption induced by intraperitoneal injection of heterocyclic compounds (2MT and Thiomorpholine (TMO) were measured by a method similar to that in Example 8.
# Male C57/BL6N mice [2] = assay: Heart rate on odor presentation (radio-telemetry); type: in vivo, mouse; conditions: filter paper scented with 271 μmol odor
# Experimental: An influence of a thiazoline-related compound and an odor molecule that induces learned fear on the heart rate was analyzed. A radio-telemetry device for monitoring biological parameters (manufactured by Physiotel) was surgically implanted in the abdomen of male C57/BL6N mice (about 3 months old). The mice were subjected to the following experiment after about 10 days of recovery period. Each mouse was placed in a test cage and, after acclimation for 10 min, a filter paper dropped with water was presented for 10 min, after which a filter paper scented with 271μmol of a thiazoline-related compound (2-methyl-2-thiazoline; 2MT) or an odor molecule that induces learned fear (anisole) was presented for 20 min. The information of heart rate was recorded every 10 sec using Dataquest A.R.T. software (DataScience international). The value of the heart rate change was calculated as the difference between the heart rate for 10 min when water was presented and the mean heart rate for 20 min when each odor molecule was presented, and the change in the heart rate without odor was set to 0. The mice presented with the odor that induces learned fear were trained to associate the anisole odor with electric shock one day before the measurement, whereby the mice learned to feel learned fear against the smell of anisole.
# sepsis model mouse = assay: Survival time in LPS sepsis model; type: in vivo; conditions: about 80 mg/kg i.p., versus saline
# Experimental: as §1
# A sepsis model mouse was prepared by the same method as in Example 18. Immediately after the LPS administration, 200 μl (about 80 mg/kg) of a thiazoline-related compound (2MT) solution prepared by diluting 100 times with saline was intraperitoneally administered. The survival time of the mouse was measured when the thiazoline-related compound (2MT) was administered and when saline, as a control, was administered (saline).
# [3] = test system: High Mobility Group Box 1 (HMGB1); assay: Blood HMGB1 in LPS sepsis model (ELISA); type: in vivo, mouse; conditions: about 80 mg/kg i.p., 16 hr, versus saline
# Experimental: as §1
# as §2, with “16” for “1 hr and 4”, “level” for “levels”, “mediator High Mobility Group Box 1 (HMGB1) was” for “cytokine Interleukin-1β (IL-1β), and anti-inflammatory cytokine Interleukin-10 (IL-10) were”
structure (smiles),measurement,setting,value
"CC1=NCCS1 [2MT, 2-methyl-2-thiazoline]",blood concentration of IL-1β,Interleukin-1β (IL-1β),decreased the blood concentration of inflammatory cytokine IL-1β
same,changes in the core body temperature,Male C57/BL6N mice [1],clear decrease in the core body temperature
same,respiratory rate,C57/BL6N male mice,reduced the respiratory rate by about half
same,oxygen consumption,mice,suppress the oxygen consumption
same,time to decrease in the heart rate to half,Male C57/BL6N mice [2],≤ 3 min
same,changes in the heart rate,"Male C57/BL6N mice [2]; 20 min, versus no odor",clear decrease in the heart rate
same,survival time in sepsis model,sepsis model mouse,extending the survival time
same,blood concentration of HMGB1,[3],decreased the blood concentration of inflammatory mediator HMGB1
